Converted amounts (≈) assume the structure as drawn.
System: non-replicating cultures of M. tuberculosis H37Rv transformed with lux ABCDE
Test: microbe, parasite or virus in culture
Format: cell-based, Mycobacterium tuberculosis
Conditions: for MIC90 LORA/MABA: ratio of LORA MIC90 to MABA MIC90
[1] = Mycobacterium tuberculosis, H37RV, […], ≥90% reduction in luminescence, read-out: MIC90 LORA

| SMILES | MIC90 LORA Rel to RMP | MIC [1] [µM] | MIC90 LORA/MABA | MIC90 [1] [µM] |
| --- | --- | --- | --- | --- |
| CO[C@H]1/C=C/O[C@@]2(C)Oc3c(C)c(O)c4c(=O)c(c5oc6cccc(OCCCCN7CCN(C)CC7)c6nc-5c4c3C2=O)NC(=O)/C(C)=C\C=C\[C@H](C)[C@H](O)[C@@H](C)[C@@H](O)[C@@H](C)[C@H](OC(C)=O)[C@@H]1C [Compound 5a, (7S,9E,11S,12R,13S,14R,15R,16R,17S,18S,19E,21Z)-2,15,17-Trihydroxy-11-methoxy-3,7,12,14,16,18,22-heptamethyl-32-[4-(4-methylpiperazin-1-yl)butoxy]-6,23,37-trioxo-8,27,38-trioxa-24,34-diazahexacyclo[23.11.1.1^4,7.0^5,36.0^26,35.0^28,33]octatriaconta-1(36)2,4,9,19,21,25,28(33)29,31,34-undecaen-13-yl acetate] | 0.57 | 0.186 | 2.0 |  |
| CO[C@H]1/C=C/O[C@@]2(C)Oc3c(C)c(O)c4c(=O)c(c5oc6cccc(OCCCCN7CCOCC7)c6nc-5c4c3C2=O)NC(=O)/C(C)=C\C=C\[C@H](C)[C@H](O)[C@@H](C)[C@@H](O)[C@@H](C)[C@H](OC(C)=O)[C@@H]1C [Compound 5b, (7S,9E,11S,12R,13S,14R,15R,16R,17S,18S,19E,21Z)-2,15,17-Trihydroxy-11-methoxy-3,7,12,14,16,18,22-heptamethyl-32-[4-(morpholin-4-yl)butoxy]-6,23,37-trioxo-8,27,38-trioxa-24,34-diazahexacyclo[23.11.1.1^4,7.0^5,36.0^26,35.0^28,33]octatriaconta-1(36)2,4,9,19,21,25,28(33)29,31,34-undecaen-13-yl acetate] | 0.15 | 0.05 | 2.4 |  |
| CO[C@H]1/C=C/O[C@@]2(C)Oc3c(C)c(O)c4c(=O)c(c5oc6cccc(OCCCCN7CCN(C(=O)OC(C)(C)C)CC7)c6nc-5c4c3C2=O)NC(=O)/C(C)=C\C=C\[C@H](C)[C@H](O)[C@@H](C)[C@@H](O)[C@@H](C)[C@H](OC(C)=O)[C@@H]1C [Compound 5c, Tert-Butyl 4-(4-{[(7S,9E,11S,12R,13S,14R,15R,16R,17S,18S,19E,21Z)-13-(acetyloxy)-2,15,17-trihydroxy-11-methoxy-3,7,12,14,16,18,22-heptamethyl-6,23,37-trioxo-8,27,38-trioxa-24,34-diazahexacyclo[23.11.1.1^4,7.0^5,36.0^26,35.0^28,33]octatriaconta-1(36)2,4,9,19,21,25,28(33)29,31,34-undecaen-32-yl]oxy}butyl)piperazine-1-carboxylate] | 0.22 | 0.058 (≈ 0.0604 µg/mL) | 2.4 |  |
| CO[C@H]1/C=C/O[C@@]2(C)Oc3c(C)c(O)c4c(=O)c(c5oc6cc(N7CCN(CC(C)C)CC7)cc(OCCCCN7CCOCC7)c6nc-5c4c3C2=O)NC(=O)/C(C)=C\C=C\[C@H](C)[C@H](O)[C@@H](C)[C@@H](O)[C@@H](C)[C@H](OC(C)=O)[C@@H]1C [Compound 6a, (7S,9E,11S,12R,13S,14R,15R,16R,17S,18S,19E,21Z)-2,15,17-Trihydroxy-11-methoxy-3,7,12,14,16,18,22-heptamethyl-30-[4-(2-methylpropyl)piperazin-1-yl]-32-[4-(morpholin-4-yl)butoxy]-6,23,37-trioxo-8,27,38-trioxa-24,34-diazahexacyclo[23.11.1.1^4,7.0^5,36.0^26,35.0^28,33]octatriaconta-1(36)2,4,9,19,21,25,28(33)29,31,34-undecaen-13-yl acetate] | 0.07 | 0.186 | 2.0 |  |
| CO[C@H]1/C=C/O[C@@]2(C)Oc3c(C)c(O)c4c(=O)c(c5oc6cc(N7CCN(CC(C)C)CC7)cc(OCCCCN7CCN(CCn8ccnc8)CC7)c6nc-5c4c3C2=O)NC(=O)/C(C)=C\C=C\[C@H](C)[C@H](O)[C@@H](C)[C@@H](O)[C@@H](C)[C@H](OC(C)=O)[C@@H]1C [Compound 6b, (7S,9E,11S,12R,13S,14R,15R,16R,17S,18S,19E,21Z)-2,15,17-trihydroxy-32-(4-{4-[2-(1H-imidazol-1-yl)ethyl]piperazin-1-yl}butoxy)-11-methoxy-3,7,12,14,16,18,22-heptamethyl-30-[4-(2-methylpropyl)piperazin-1-yl]-6,23,37-trioxo-8,27,38-trioxa-24,34-diazahexacyclo[23.11.1.1^4,7.0^5,36.0^26,35.0^28,33]octatriaconta-1(36)2,4,9,19,21,25,28(33)29,31,34-undecaen-13-yl acetate] | 0.05 | 0.05 | 2.4 |  |
| CO[C@H]1/C=C/O[C@@]2(C)Oc3c(C)c(O)c4c(=O)c(c5oc6cc(N7CCN(C)CC7)cc(OCCCCN7CCN(C(=O)Cn8ccnc8)CC7)c6nc-5c4c3C2=O)NC(=O)/C(C)=C\C=C\[C@H](C)[C@H](O)[C@@H](C)[C@@H](O)[C@@H](C)[C@H](OC(C)=O)[C@@H]1C [Compound 6c, (7S,9E,11S,12R,13S,14R,15R,16R,17S,18S,19E,21Z)-2,15,17-Trihydroxy-32-(4-{4-[2-(1H-imidazol-1-yl)acetyl]piperazin-1-yl}butoxy)-11-methoxy-3,7,12,14,16,18,22-heptamethyl-30-(4-methylpiperazin-1-yl)-6,23,37-trioxo-8,27,38-trioxa-24,34-diazahexacyclo[23.11.1.1^4,7.0^5,36.0^26,35.0^28,33]octatriaconta-1(36)2,4,9,19,21,25,28(33)29,31,34-undecaen-13-yl acetate] | 0.14 | 0.021 | 0.5 |  |
| CO[C@H]1/C=C/O[C@@]2(C)Oc3c(C)c(O)c4c(=O)c(c5oc6cc(N7CCN(CC(C)C)CC7)cc(OCCCCN7CCN(C(=O)Cn8ccnc8)CC7)c6nc-5c4c3C2=O)NC(=O)/C(C)=C\C=C\[C@H](C)[C@H](O)[C@@H](C)[C@@H](O)[C@@H](C)[C@H](OC(C)=O)[C@@H]1C [Compound 6d, (7S,9E,11S,12R,13S,14R,15R,16R,17S,18S,19E,21Z)-2,15,17-Trihydroxy-32-(4-{4-[2-(1H-imidazol-1-yl)acetyl]piperazin-1-yl}butoxy)-11-methoxy-3,7,12,14,16,18,22-heptamethyl-30-[4-(2-methylpropyl)piperazin-1-yl]-6,23,37-trioxo-8,27,38-trioxa-24,34-diazahexacyclo[23.11.1.1^4,7.0^5,36.0^26,35.0^28,33]octatriaconta-1(36)2,4,9,19,21,25,28,30,32,34-undecaen-13-yl acetate] | 0.06 | 0.058 | 2.4 |  |
| CO[C@H]1/C=C/O[C@@]2(C)Oc3c(C)c(O)c4c(=O)c(c5oc6cccc(OCc7cccc(CN8CCN(C(C)=O)CC8)c7)c6nc-5c4c3C2=O)NC(=O)/C(C)=C\C=C\[C@H](C)[C@H](O)[C@@H](C)[C@@H](O)[C@@H](C)[C@H](OC(C)=O)[C@@H]1C [Compound 11c, (7S,9E,11S,12R,13S,14R,15R,16R,17S,18S,19E,21Z)-32-({3-[(4-Acetylpiperazin-1-yl)methyl]phenyl}methoxy)-2,15,17-trihydroxy-11-methoxy-3,7,12,14,16,18,22-heptamethyl-6,23,37-trioxo-8,27,38-trioxa-24,34-diazahexacyclo-[23.11.1.1^4,7.0^5,36.0^26,35.0^28,33]octatriaconta-1(36)2,4,9,19,21,25,28,30,32,34-undecaen-13-yl acetate] | 0.53 |  | 2.1 | 0.123 |
| CO[C@H]1/C=C/O[C@@]2(C)Oc3c(C)c(O)c4c(=O)c(c5oc6cccc(OCc7cccc(CN8CCN(C(=O)Cn9ccnc9)CC8)c7)c6nc-5c4c3C2=O)NC(=O)/C(C)=C\C=C\[C@H](C)[C@H](O)[C@@H](C)[C@@H](O)[C@@H](C)[C@H](OC(C)=O)[C@@H]1C [Compound 11e, (7S,9E,11S,12R,13S,14R,15R,16R,17S,18S,19E,21Z)-2,15,17-Trihydroxy-32-{[3-({4-[2-(1H-imidazol-1-yl)acetyl]piperazin-1-yl}methyl)phenyl]methoxy}-11-methoxy-3,7,12,14,16,18,22-heptamethyl-6,23,37-trioxo-8,27,38-trioxa-24,34-diazahexacyclo[23.11.1.1^4,7.0^5,36.0^26,35.0^28,33]octatriaconta-1(36)2,4,9,19,21,25,28,30,32,34-undecaen-13-yl acetate] | 0.26 | 0.078 | 1.6 |  |
| CO[C@H]1/C=C/O[C@@]2(C)Oc3c(C)c(O)c4c(=O)c(c5oc6cccc(OCc7ccc(CN8CCN(C(=O)Cn9ccnc9)CC8)cc7)c6nc-5c4c3C2=O)NC(=O)/C(C)=C\C=C\[C@H](C)[C@H](O)[C@@H](C)[C@@H](O)[C@@H](C)[C@H](OC(C)=O)[C@@H]1C [Compound 16b, (7S,9E,11S,12R,13S,14R,15R,16R,17S,18S,19E,21Z)-2,15,17-Trihydroxy-32-{[4-({4-[2-(1H-imidazol-1-yl)acetyl]piperazin-1-yl}methyl)phenyl]methoxy}-11-methoxy-3,7,12,14,16,18,22-heptamethyl-6,23,37-trioxo-8,27,38-trioxa-24,34-diazahexacyclo[23.11.1.1^4,7.0^5,36.0^26,35.0^28,33]octatriaconta-1(36)2,4,9,19,21,25,28,30,32,34-undecaen-13-yl acetate] | 0.93 | 0.057 | 2.0 |  |
| CO[C@H]1/C=C/O[C@@]2(C)Oc3c(C)c(O)c4c(=O)c(c5oc6cc(N7CCN(CC(C)C)CC7)cc(OCc7ccc(CN8CCNCC8)cc7)c6nc-5c4c3C2=O)NC(=O)/C(C)=C\C=C\[C@H](C)[C@H](O)[C@@H](C)[C@@H](O)[C@@H](C)[C@H](OC(C)=O)[C@@H]1C [Compound 17b, (7S,9E,11S,12R,13S,14R,15R,16R,17S,18S,19E,21Z)-2,15,17-Trihydroxy-11-methoxy-3,7,12,14,16,18,22-heptamethyl-30-[4-(2-methylpropyl)piperazin-1-yl]-6,23,37-trioxo-32-({4-[(piperazin-1-yl)methyl]phenyl}methoxy)-8,27,38-trioxa-24,34-diazahexacyclo[23.11.1.1^4,7.0^5,36.0^26,35.0^28,33]octatriaconta-1(36)2,4,9,19,21,25,28,30,32,34-undecaen-13-yl acetate] | 1.3 | < 0.016 |  |  |
